Measured values published in the NIST ThermoML archive (doi:10.1021/je300487n).

Assays:
[1] = for viscosity / mass density: 101.33 kPa, Liquid; for viscosity: Concentric cylinders viscometry; for mass density: Vibrating tube method; for surface tension liquid-gas: Drop volume
[2] = refractive index (Na D-line) (dimensionless); conditions: 101.33 kPa, Liquid, Standard Abbe refractometry

CC(=O)[O-].CCn1cc[nH+]c1 [1-ethyl-1H-imidazolium acetate]
Conditions | mass density, [1] [kg/m3] | refractive index, [2] | surface tension liquid-gas, [1] [mN/m] | viscosity, [1] [mPa·s]
283.15 K | 1047.2 | 1.46347 | – | 7.88
288.15 K | 1042.9 | 1.4616 | – | 6.669
293.15 K | 1038.5 | 1.45966 | – | 5.291
298.1 K | – | – | 37.8 | –
298.15 K | 1034.2 | 1.45769 | – | 4.955
303.15 K | 1029.9 | 1.45576 | – | 4.337
307.8 K | – | – | 36.7 | –
308.15 K | 1025.6 | 1.45379 | – | 3.828
313.15 K | 1021.3 | 1.45185 | – | 3.225
318.15 K | 1017 | 1.44985 | – | 3.051
318.5 K | – | – | 36.1 | –
323.15 K | 1012.7 | 1.44791 | – | 2.75
328.15 K | 1008.4 | 1.44593 | – | 2.492
328.3 K | – | – | 35 | –
333.15 K | 1004.1 | 1.44395 | – | 2.171
338.15 K | 999.8 | 1.44197 | – | 2.078
339.9 K | – | – | 33.7 | –
343.15 K | 995.8 | 1.44 | – | 1.91
344.2 K | – | – | 33.3 | –
348.15 K | 991.5 | 1.438 | – | 1.762
353.15 K | 987.2 | 1.43607 | – | 1.547
358.15 K | 982.8 | – | – | 1.515
363.15 K | 978.5 | – | – | 1.412

CC(=O)[O-].CCn1cc[n+](C)c1 [1-ethyl-3-methylimidazolium acetate]
[2]
Conditions | refractive index
283.15 K | 1.50402
288.15 K | 1.50267
293.15 K | 1.50129
298.15 K | 1.49992
303.15 K | 1.49854
308.15 K | 1.49718
313.15 K | 1.49581
318.15 K | 1.49447
323.15 K | 1.49307
328.15 K | 1.49171
333.15 K | 1.49035
338.15 K | 1.48899
343.15 K | 1.48756
348.15 K | 1.48613
353.15 K | 1.48476

CC(=O)O.CCN(C)C [N,N-dimethylethanamine acetate]
Conditions | mass density, [1] [kg/m3] | refractive index, [2] | surface tension liquid-gas, [1] [mN/m] | viscosity, [1] [mPa·s]
283.15 K | 1028 | 1.42303 | – | 26.22
288.15 K | 1024 | 1.42143 | – | 20.89
293.15 K | 1020.1 | 1.41983 | – | 16.36
298.15 K | 1016.1 | 1.41819 | – | 13.97
298.2 K | – | – | 33.5 | –
303.15 K | 1012.2 | 1.41655 | – | 11.68
308.1 K | – | – | 32.7 | –
308.15 K | 1008.3 | 1.41492 | – | 9.888
313.15 K | 1004.4 | 1.41328 | – | 8.275
318 K | – | – | 32.1 | –
318.15 K | 1000.5 | 1.41156 | – | 7.316
323.15 K | 996.8 | 1.40991 | – | 6.381
328.15 K | 992.9 | 1.4082 | – | 5.611
328.4 K | – | – | 31.3 | –
333.15 K | 989 | 1.40649 | – | 4.869
338.15 K | 985 | 1.40476 | – | 4.427
338.2 K | – | – | 30.5 | –
343.15 K | 981.1 | 1.40312 | – | 3.97
348.15 K | 977.2 | 1.40138 | – | 3.578
353.15 K | 973.1 | 1.39963 | – | 3.132
358.15 K | 969.1 | – | – | 2.943
363.15 K | 965.1 | – | – | 2.691
